Data published in US11180462B2, “Microbiocidal oxadiazole derivatives” (SYNGENTA PARTICIPATIONS AG, priority 2015, dated 2021).

The compounds below were run on Glomerella lagenarium (Colletotrichum lagenarium) (assay: Fungicidal activity against Glomerella lagenarium (Colletotrichum lagenarium) liquid culture / cucumber / preventative (anthracnose)). Settings: Colletotrichum orbiculare; 20 ppm in the applied formulation; liquid culture (PDB), growth inhibition measured photometrically after 3 to 4 days; compared to untreated control; read-out: disease control.
Format: cell-based
Procedure: Mycelia fragments or conidia suspensions of a fungus prepared either freshly from liquid cultures of the fungus or from cryogenic storage, are directly mixed into nutrient broth. DMSO solutions of the test compound (max. 10 mg/ml) are diluted with 0.025% Tween20 by a factor of 50 and 10 μl of this solution is pipetted into a microtiter plate (96-well format). The nutrient broth containing the fungal spores/mycelia fragments is then added to give an end concentration of the tested compound. The test plates are incubated in the dark at 24° C. and 96% relative humidity. The inhibition of fungal growth is determined photometrically after 2 to 7 days, depending on the pathosystem, and percent antifungal activity relative to the untreated check is calculated.
Fungicidal activity against Glomerella lagenarium (Colletotrichum lagenarium) liquid culture/cucumber/Preventative (Anthracnose)
Conidia of the fungus from cryogenic storage are directly mixed into nutrient broth (PDB—potato dextrose broth). After placing a (DMSO) solution of test compound into a microtiter plate (96-well format), the nutrient broth containing the fungal spores is added.
The following compounds at 20 ppm in the applied formulation give at least 80% disease control in this test when compared to untreated control under the same conditions, which show extensive disease development.

Compound | inhibition of growth at 20 ppm [%]
COc1ccccc1C(=O)N(Cc1ccc(-c2noc(C(F)(F)F)n2)cc1)OC [Compound 1.7, N,2-dimethoxy-N-[[4-[5-(trifluoromethyl)-1,2,4-oxadiazol-3-yl]phenyl]methyl]-benzamide] | ≥ 80
CON(Cc1ccc(-c2noc(C(F)(F)F)n2)cc1)C(=O)c1ccc(Cl)cc1Cl [Compound 1.9, 2,4-dichloro-N-methoxy-N-[[4-[5-(trifluoromethyl)-1,2,4-oxadiazol-3-yl]phenyl]methyl]-benzamide] | ≥ 80
CON(Cc1ccc(-c2noc(C(F)(F)F)n2)cc1)C(=O)CCc1ccc(Cl)cc1 [Compound 1.18, 3-(4-chlorophenyl)-N-methoxy-N-[[4-[5-(trifluoromethyl)-1,2,4-oxadiazol-3-yl]phenyl]methyl]-propanamide] | ≥ 80
CON(Cc1ccc(-c2noc(C(F)(F)F)n2)cc1)C(=O)c1cc2c(cc1Br)OCO2 [Compound 1.55, 6-bromo-N-methoxy-N-[[4-[5-(trifluoromethyl)-1,2,4-oxadiazol-3-yl]phenyl]methyl]-1,3-benzoxlioxole-5-carboxamide] | ≥ 80
CCC1(C(=O)N(Cc2ccc(-c3noc(C(F)(F)F)n3)cc2)OC)C(C)C1(Cl)Cl (stereo not drawn) [Compound 1.61, 2,2-dichloro-1-ethyl-N-methoxy-3-methyl-N-[[4-[5-(trifluoromethyl)-1,2,4-oxadiazol-3-yl]phenyl]methyl]-cyclopropane-carboxamide] | ≥ 80
CON(Cc1ccc(-c2noc(C(F)(F)F)n2)cc1)C(=O)Cc1ccc(C(F)(F)F)cc1 [Compound 1.68, N-methoxy-N-[[4-[5-(trifluoromethyl)-1,2,4-oxadiazol-3-yl]phenyl]methyl]-2-[4-(trifluoromethyl)-phenyl]acetamide] | ≥ 80
COc1cccc(C2(C(=O)N(Cc3ccc(-c4noc(C(F)(F)F)n4)cc3)OC)CC2)c1 [Compound 1.72, N-methoxy-1-(3-methoxyphenyl)-N-[[4-[5-(trifluoromethyl)-1,2,4-oxadiazol-3-yl]phenyl]methyl]-cyclopropane-carboxamide] | ≥ 80
COc1ccc(C2(C(=O)N(Cc3ccc(-c4noc(C(F)(F)F)n4)cc3)OC)CC2)cc1 [Compound 1.74, N-methoxy-1-(4-methoxyphenyl)-N-[[4-[5-(trifluoromethyl)-1,2,4-oxadiazol-3-yl]phenyl]methyl]-cyclopropane-carboxamide] | ≥ 80
CCCC(C)(C)C(=O)N(Cc1ccc(-c2noc(C(F)(F)F)n2)cc1)C1CC1 [Compound 1.85, N-cyclopropyl-2,2-dimethyl-N-[[4-[5-(trifluoromethyl)-1,2,4-oxadiazol-3-yl]phenyl]methyl]-pentanamide] | ≥ 80
O=C(c1cccc(C(F)(F)F)c1)N(Cc1ccc(-c2noc(C(F)(F)F)n2)cc1)C1CC1 [Compound 1.88, N-cyclopropyl-3-(trifluoromethyl)-N-[[4-[5-(trifluoromethyl)-1,2,4-oxadiazol-3-yl]phenyl]methyl]-benzamide] | ≥ 80
O=C(Cc1ccccc1Cl)N(Cc1ccc(-c2noc(C(F)(F)F)n2)cc1)C1CC1 [Compound 1.94, 2-(2-chlorophenyl)-N-cyclopropyl-N-[[4-[5-(trifluoromethyl)-1,2,4-oxadiazol-3-yl]phenyl]methyl]-acetamide] | ≥ 80
O=C(N(Cc1ccc(-c2noc(C(F)(F)F)n2)cc1)C1CC1)C1(c2ccccc2)CC1 [Compound 1.96, N-cyclopropyl-1-phenyl-N-[[4-[5-(trifluoromethyl)-1,2,4-oxadiazol-3-yl]phenyl]methyl]-cyclopropane-carboxamide] | ≥ 80
O=C(C1CC1c1ccccc1)N(Cc1ccc(-c2noc(C(F)(F)F)n2)cc1)C1CC1 (stereo not drawn) [Compound 1.98, N-cyclopropyl-2-phenyl-N-[[4-[5-(trifluoromethyl)-1,2,4-oxadiazol-3-yl]phenyl]methyl]-cyclopropane-carboxamide] | ≥ 80
CC1(C(=O)N(Cc2ccc(-c3noc(C(F)(F)F)n3)cc2)C2CC2)CCCCC1 [Compound 1.108, N-cyclopropyl-1-methyl-N-[[4-[5-(trifluoromethyl)-1,2,4-oxadiazol-3-yl]phenyl]methyl]-cyclohexane-carboxamide] | ≥ 80
CC(C)(C)CC(=O)N(Cc1ccc(-c2noc(C(F)(F)F)n2)cc1)C1CC1 [Compound 1.116, N-cyclopropy 1-3,3-dimethyl-N-[[4-[5-(trifluoromethyl)-1,2,4-oxadiazol-3-yl]phenyl]methyl]-butanamide] | ≥ 80
CCC(CC(=O)N(Cc1ccc(-c2noc(C(F)(F)F)n2)cc1)C1CC1)C(F)(F)F (stereo not drawn) [Compound 1.148, N-cyclopropyl-3-(trifluoromethyl)-N-[[4-[5-(trifluoromethyl)-1,2,4-oxadiazol-3-yl]phenyl]methyl]-pentanamide] | ≥ 80
C#CCN(Cc1ccc(-c2noc(C(F)(F)F)n2)cc1)C(=O)Cc1ccccc1Cl [Compound 1.163, 2-(2-chlorophenyl)-N-prop-2-ynyl-N-[[4-[5-(trifluoromethyl)-1,2,4-oxadiazol-3-yl]phenyl]methyl]-acetamide] | ≥ 80
C#CCN(Cc1ccc(-c2noc(C(F)(F)F)n2)cc1)C(=O)C1(C)CC1(Cl)Cl (stereo not drawn) [Compound 1.174, 2,2-dichloro-1-methyl-N-prop-2-ynyl-N-[[4-[5-(trifluoromethyl)-1,2,4-oxadiazol-3-yl]phenyl]methyl]-cyclopropane-carboxamide] | ≥ 80
C#CCN(Cc1ccc(-c2noc(C(F)(F)F)n2)cc1)C(=O)Cc1ccccc1OC [Compound 1.179, 2-(2-methoxyphenyl)-N-prop-2-ynyl-N-[[4-[5-(trifluoromethyl)-1,2,4-oxadiazol-3-yl]phenyl]methyl]-acetamide] | ≥ 80
O=C(N(Cc1ccc(-c2noc(C(F)(F)F)n2)cc1)CC1CC1)C1(C(F)(F)F)CC1 [Compound 1.203, N-(cyclopropylmethyl)-1-(trifluoromethyl)-N-[[4-[5-(trifluoromethyl)-1,2,4-oxadiazol-3-yl]phenyl]methyl]-cyclopropane-carboxamide] | ≥ 80
C=CCCC(=O)N(Cc1ccc(-c2noc(C(F)(F)F)n2)cc1)CC1CC1 [Compound 1.208, N-(cyclopropylmethyl)-N-[[4-[5-(trifluoromethyl)-1,2,4-oxadiazol-3-yl]phenyl]methyl]-pent-4-enamide] | ≥ 80
O=C(CC1CC1)N(Cc1ccc(-c2noc(C(F)(F)F)n2)cc1)CC1CC1 [Compound 1.211, 2-cyclopropyl-N-(cyclopropylmethyl)-N-[[4-[5-(trifluoromethyl)-1,2,4-oxadiazol-3-yl]phenyl]methyl]-acetamide] | ≥ 80
O=C(CCC(F)(F)F)N(Cc1ccc(-c2noc(C(F)(F)F)n2)cc1)CC1CC1 [Compound 1.213, N-(cyclopropylmethyl)-4,4,4-trifluoro-N-[[4-[5-(trifluoromethyl)-1,2,4-oxadiazol-3-yl]phenyl]methyl]-butanamide] | ≥ 80
O=C(Cc1ccccc1)N(Cc1ccc(-c2noc(C(F)(F)F)n2)cc1)CC1CC1 [Compound 1.228, N-(cyclopropylmethyl)-2-phenyl-N-[[4-[5-(trifluoromethyl)-1,2,4-oxadiazol-3-yl]phenyl]methyl]-acetamide] | ≥ 80
CC1(C)CC1C(=O)N(Cc1ccc(-c2noc(C(F)(F)F)n2)cc1)CC1CC1 (stereo not drawn) [Compound 1.231, N-(cyclopropylmethyl)-2,2-dimethyl-N-[[4-[5-(trifluoromethyl)-1,2,4-oxadiazol-3-yl]phenyl]methyl]-cyclopropane-carboxamide] | ≥ 80
O=C(C1CC1(Cl)Cl)N(Cc1ccc(-c2noc(C(F)(F)F)n2)cc1)CC1CC1 (stereo not drawn) [Compound 1.232, 2.2-dichloro-N-(cyclopropylmethyl)-N-[[4-[5-(trifluoromethyl)-1,2,4-oxadiazol-3-yl]phenyl]methyl]-cyclopropane-carboxamide] | ≥ 80
N#Cc1ccc(CC(=O)N(Cc2ccc(-c3noc(C(F)(F)F)n3)cc2)CC2CC2)cc1 [Compound 1.236, 2-(4-cyanophenyl)-N-(cyclopropylmethyl)-N-[[4-[5-(trifluoromethyl)-1,2,4-oxadiazol-3-yl]phenyl]methyl]-acetamide] | ≥ 80
C#CCC(NS(=O)(=O)CC)C(=O)N(Cc1ccc(-c2noc(C(F)(F)F)n2)cc1)CC1CC1 (stereo not drawn) [Compound 1.239, N-(cyclopropylmethyl)-2-(ethylsulfonylamino)-N-[[4-[5-(trifluoromethyl)-1,2,4-oxadiazol-3-yl]phenyl]methyl]-pent-4-ynamide] | ≥ 80
O=C(CC1CC1(F)F)N(Cc1ccc(-c2noc(C(F)(F)F)n2)cc1)CC1CC1 (stereo not drawn) [Compound 1.240, N-(cyclopropylmethyl)-2-(2,2-difluorocyclopropyl)-N-[[4-[5-(trifluoromethyl)-1,2,4-oxadiazol-3-yl]phenyl]methyl]-acetamide] | ≥ 80
CC=C(C)C(=O)N(OC)C(C)c1ccc(-c2noc(C(F)(F)F)n2)cc1 (stereo not drawn) [Compound 1.255, N-methoxy-2-methyl-N-[1-[4-[5-(trifluoromethyl)-1,2,4-oxadiazol-3-yl]phenyl]ethyl]but-2-enamide] | ≥ 80
